Measurements taken from PMC4023971, “Targeting Prolyl Endopeptidase with Valproic Acid as a Potential Modulator of Neutrophilic Inflammation” (PLoS ONE, 2014).

Molecular target: T1, prolyl endopeptidase (PE, rhPE) (Homo sapiens, UniProt P48147)
T1 construct: gene PREP; recombinant human PE expressed in E. coli from plasmid pTrcHis PE
T1 sequence (P48147 1-710): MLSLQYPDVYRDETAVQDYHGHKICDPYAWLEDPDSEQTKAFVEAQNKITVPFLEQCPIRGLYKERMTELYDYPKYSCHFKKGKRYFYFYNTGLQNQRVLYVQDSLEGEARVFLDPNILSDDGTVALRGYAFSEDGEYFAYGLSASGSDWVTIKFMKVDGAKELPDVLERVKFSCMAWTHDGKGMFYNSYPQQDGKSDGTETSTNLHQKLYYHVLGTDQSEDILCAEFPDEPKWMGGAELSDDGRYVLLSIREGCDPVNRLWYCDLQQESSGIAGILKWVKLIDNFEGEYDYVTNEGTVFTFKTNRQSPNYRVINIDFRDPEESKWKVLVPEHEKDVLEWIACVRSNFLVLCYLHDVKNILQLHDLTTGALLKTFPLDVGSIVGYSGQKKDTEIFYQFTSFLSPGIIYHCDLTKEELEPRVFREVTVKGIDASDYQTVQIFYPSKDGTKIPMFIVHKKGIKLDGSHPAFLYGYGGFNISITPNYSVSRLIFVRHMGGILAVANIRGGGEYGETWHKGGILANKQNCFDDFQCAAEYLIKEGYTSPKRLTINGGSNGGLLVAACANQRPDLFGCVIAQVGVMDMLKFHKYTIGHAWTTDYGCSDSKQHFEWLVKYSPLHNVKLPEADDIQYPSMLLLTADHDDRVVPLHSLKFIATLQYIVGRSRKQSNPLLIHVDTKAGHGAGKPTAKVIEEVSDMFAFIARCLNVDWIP
Assay: purified rhPE activity assay (Suc-Gly-Pro-AMC fluorescence / Suc-Gly-Pro-pNA UV-vis, Lineweaver-Burk); supported by CD and NMR competition with ZPP
Type: biochemical

Compound: CCCC(CCC)C(=O)O [VPA, Valproic acid]
- Ki: 1 to 2 mM
